16 molecules from patent US10316017B2, “COT modulators and methods of use thereof” (Gilead Sciences, Inc., priority 2015, dated 2019) can be followed below.

Assay [1] deals with TNFα production in LPS-stimulated human monocytes. The assay can be described thus: Cot Monocyte TNFα Cell Based Assay. As to conditions: Homo sapiens, Monocyte, TNFα in LPS-stimulated human monocytes; read-out: EC50 TNF. In a few lines: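 Cells at 5,000/well were pretreated with compound for 1 h at 37 °C (0.5% DMSO final), then stimulated with 50 pg/ml LPS for 4 h at 37 °C. Supernatant TNFα was measured by two-antibody TR-FRET after overnight room-temperature incubation; values are percent of control between unstimulated and stimulated wells.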

The target in assay [2] is T1, human Cot catalytic domain (30-397 amino acids) (Homo sapiens, UniProt P41279).
T1 construct: Purified recombinant human Cot catalytic domain (30-397 amino acids) was purchased from Cama Biosciences; purchased Cama Biosciences (so in the source)
The assay can be described thus: High Throughput Cot Biochemical Assay (KinEASE TR-FRET). As to conditions: Cot biochemical HTRF (KinEASE TR-FRET) assay; read-out: IC50 HTRF. In a few lines: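 Reaction of 5 nM recombinant human Cot catalytic domain (aa 30-397) with 1 μM STK3 peptide (XL665-labeled) and 400 μM ATP in 10 mM MOPS pH 7.0, 10 mM MgOAc, 1 mM DTT, 0.5 mg/mL BSA, 0.1% DMSO. Phosphopeptide detected by TR-FRET with europium anti-phospho antibody.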
(In general: In TR-FRET formats the signal depends on donor and acceptor labels being close together.)

T1 sequence (P41279 30-397): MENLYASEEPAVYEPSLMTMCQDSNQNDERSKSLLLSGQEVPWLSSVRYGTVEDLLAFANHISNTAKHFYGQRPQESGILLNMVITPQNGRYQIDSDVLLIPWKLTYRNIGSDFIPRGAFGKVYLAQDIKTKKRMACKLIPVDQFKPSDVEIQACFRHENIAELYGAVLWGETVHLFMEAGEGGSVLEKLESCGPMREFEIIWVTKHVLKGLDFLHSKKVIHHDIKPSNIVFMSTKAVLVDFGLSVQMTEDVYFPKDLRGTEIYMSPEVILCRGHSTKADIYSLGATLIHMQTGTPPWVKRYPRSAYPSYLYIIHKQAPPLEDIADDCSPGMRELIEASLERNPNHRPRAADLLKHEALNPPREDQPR

For the molecule `CCN1CC(n2cc([C@@H](Nc3cc(Cl)c4ncc(C#N)c(Nc5ccc(F)c(Cl)c5)c4c3)c3ccccc3)nn2)CC(F)(F)C1` (stereo partly drawn) [Example 745, 8-chloro-4-((3-chloro-4-fluorophenyl)amino)-6-(((1S)-(1-(1-ethyl-5,5-difluoropiperidin-3-yl)-1H-1,2,3-triazol-4-yl)(phenyl)methyl)amino) quinoline-3-carbonitrile], the EC50 (as a rule, the concentration giving half of the maximal effect) in assay [1] came to 615 nM. In assay [2], the IC50 (commonly the midpoint of a concentration-inhibition curve) is 70 nM.

For the molecule `N#Cc1cnc2c(Cl)cc(N[C@@H](c3ccccc3)c3cn(CC(=O)N4CCOCC4)nn3)cc2c1Nc1ccc(F)c(Cl)c1` [Example 746, (S)-8-chloro-4-((3-chloro-4-fluorophenyl)amino)-6-(((1-(2-morpholino-2-oxoethyl)-1H-1,2,3-triazol-4-yl)(phenyl)methyl)amino) quinoline-3-carbonitrile], in assay [1], the EC50 was found to be 349 nM. The half-maximal inhibitory concentration (IC50) in assay [2] is 29 nM.

Take `CCN1CC(Cn2cc([C@@H](Nc3cc(Cl)c4ncc(C#N)c(Nc5ccc(F)c(Cl)c5)c4c3)c3ccccc3)nn2)C1` [Example 747, (S)-8-chloro-4-((3-chloro-4-fluorophenyl)amino)-6-(((1-((1-ethylazetidin-3-yl)methyl)-1H-1,2,3-triazol-4-yl)(phenyl)methyl)amino) quinoline-3-carbonitrile]: in assay [1], the 50% effective concentration (EC50) stood at 110 nM. For the same molecule, the IC50 in assay [2] turned out to be 4 nM.

As for `N#Cc1cnc2c(Cl)cc(N[C@@H](c3ccccc3)c3cn(C4CNCC(F)(F)C4)nn3)cc2c1Nc1ccc(F)c(Cl)c1` (stereo partly drawn) [Example 748, 8-chloro-4-((3-chloro-4-fluorophenyl)amino)-6-(((1S)-(1-(5,5-difluoropiperidin-3-yl)-1H-1,2,3-triazol-4-yl)(phenyl)methyl)amino) quinoline-3-carbonitrile], in assay [1], the EC50 turned out to be 610 nM. Further, the IC50 in assay [2] was found to be 60 nM.

As for `CC(C)(C)N1CCC(n2cc([C@@H](Nc3cc(Cl)c4ncc(C#N)c(Nc5ccc(C(F)(F)F)nc5)c4c3)c3ccc(Cl)cc3)nn2)CC1` [Example 750, (S)-6-(((1-(1-(tert-butyl)piperidin-4-yl)-1H-1,2,3-triazol-4-yl)(4-chlorophenyl)methyl)amino)-8-chloro-4-((6-(trifluoromethyl)pyridin-3-yl)amino)quinoline-3-carbonitrile], the concentration giving a half-maximal response (EC50) in assay [1] is 4720 nM. The IC50 in assay [2] was found to be 1890 nM.

On to `CC(C)(C)N1CCC(n2cc([C@@H](Nc3cc(Cl)c4ncc(C#N)c(Nc5cccc(C#N)c5)c4c3)c3ccc(Cl)cc3)nn2)CC1` [Example 753, (S)-6-(((1-(1-(tert-butyl)piperidin-4-yl)-1H-1,2,3-triazol-4-yl)(4-chlorophenyl)methyl)amino)-8-chloro-4-((3-cyanophenyl)amino)quinoline-3-carbonitrile], for which, in assay [1], the EC50 amounted to 1680 nM. Besides, the IC50 in assay [2] turned out to be 88 nM.

For `CC(C)(C)N1CCC(n2cc([C@@H](Nc3cc(Cl)c4ncc(C#N)c(Nc5ccc(Cl)c(F)c5)c4c3)c3ccc(Cl)cc3)nn2)CC1` [Example 755, (S)-6-(((1-(1-(tert-butyl)piperidin-4-yl)-1H-1,2,3-triazol-4-yl)(4-chlorophenyl)methyl)amino)-8-chloro-4-((4-chloro-3-fluorophenyl)amino)quinoline-3-carbonitrile], the EC50 in assay [1] was found to be 3200 nM. Also, in assay [2], the half-maximal inhibitory concentration (IC50) was found to be 201 nM.

`CC(C)(C)N1CCC(n2cc([C@@H](Nc3cc(Cl)c4ncc(C#N)c(Nc5cc(Cl)cc(Cl)c5)c4c3)c3ccc(Cl)cc3)nn2)CC1` [Example 756, (S)-6-(((1-(1-(tert-butyl)piperidin-4-yl)-1H-1,2,3-triazol-4-yl)(4-chlorophenyl)methyl)amino)-8-chloro-4-((3,5-dichlorophenyl)amino)quinoline-3-carbonitrile]: the EC50 in assay [1] turned out to be 2980 nM. Also, the IC50 in assay [2] stood at 108 nM.

For `CC(C)(C)N1CCC(n2cc([C@@H](Nc3cc(Cl)c4ncc(C#N)c(Nc5cccc(Br)c5)c4c3)c3ccc(Cl)cc3)nn2)CC1` [Example 757, (S)-4-((3-bromophenyl)amino)-6-(((1-(1-(tert-butyl)piperidin-4-yl)-1H-1,2,3-triazol-4-yl)(4-chlorophenyl)methyl)amino)-8-chloroquinoline-3-carbonitrile], the EC50 in assay [1] turned out to be 738 nM. Besides, the IC50 in assay [2] was 41 nM.

With `CC(C)(C)N1CCC(n2cc([C@@H](Nc3cc(Cl)c4ncc(C#N)c(Nc5ccccc5Cl)c4c3)c3ccc(Cl)cc3)nn2)CC1` [Example 758, (S)-6-(((1-(1-(tert-butyl)piperidin-4-yl)-1H-1,2,3-triazol-4-yl)(4-chlorophenyl)methyl)amino)-8-chloro-4-((2-chlorophenyl)amino)quinoline-3-carbonitrile], in assay [1], the EC50 was 1310 nM. Besides, in assay [2], the IC50 came to 97 nM.

As for `CC(C)(C)N1CCC(n2cc([C@@H](Nc3cc(Cl)c4ncc(C#N)c(Nc5ccc(OC(F)(F)F)cc5)c4c3)c3ccc(Cl)cc3)nn2)CC1` [Example 759, (S)-6-(((1-(1-(tert-butyl)piperidin-4-yl)-1H-1,2,3-triazol-4-yl)(4-chlorophenyl)methyl)amino)-8-chloro-4-((4-(trifluoromethoxy)phenyl)amino) quinoline-3-carbonitrile], the EC50 in assay [1] worked out at 2750 nM. Further, the IC50 in assay [2] was found to be 2140 nM.

For `CC(C)(C)N1CCC(n2cc([C@@H](Nc3cc(Cl)c4ncc(C#N)c(Nc5cc(F)cc(F)c5)c4c3)c3ccc(Cl)cc3)nn2)CC1` [Example 764, (S)-6-(((1-(1-(tert-butyl)piperidin-4-yl)-1H-1,2,3-triazol-4-yl)(4-chlorophenyl)methyl)amino)-8-chloro-4-((3,5-difluorophenyl)amino)quinoline-3-carbonitrile], in assay [1], the concentration for a half-maximal effect (EC50) stood at 3270 nM. In addition, the IC50 in assay [2] stood at 38 nM.

On to `CC(C)(C)N1CCC(n2cc([C@@H](Nc3cc(Cl)c4ncc(C#N)c(Nc5ccc(Cl)c(Cl)c5)c4c3)c3ccc(Cl)cc3)nn2)CC1` [Example 765, (S)-6-(((1-(1-(tert-butyl)piperidin-4-yl)-1H-1,2,3-triazol-4-yl)(4-chlorophenyl)methyl)amino)-8-chloro-4-((3,4-dichlorophenyl)amino)quino1ine-3-carbonitrile], for which, in assay [1], the EC50 came to 1290 nM. The IC50 in assay [2] amounted to 70 nM.

As to `CC(C)(C)N1CCC(n2cc([C@@H](Nc3cc(Cl)c4ncc(C#N)c(Nc5ccc(F)cc5)c4c3)c3ccc(Cl)cc3)nn2)CC1` [Example 766, (S)-6-(((1-(1-(tert-butyl)piperidin-4-yl)-1H-1,2,3-triazol-4-yl)(4-chlorophenyl)methyl)amino)-8-chloro-4-((4-fluorophenyl)amino)quinoline-3-carbonitrile], the concentration giving a half-maximal response (EC50) in assay [1] turned out to be 1770 nM. In addition, the IC50 in assay [2] worked out at 41 nM.

Regarding `CC(C)(C)N1CCC(n2cc([C@@H](Nc3cc(Cl)c4ncc(C#N)c(Nc5cccc(F)c5)c4c3)c3ccc(Cl)cc3)nn2)CC1` [Example 767, (S)-6-(((1-(1-(tert-butyl)piperidin-4-yl)-1H-1,2,3-triazol-4-yl)(4-chlorophenyl)methyl)amino)-8-chloro-4-((3-fluorophenyl)amino)quinoline-3-carbonitrile], in assay [1], the concentration for a half-maximal effect (EC50) came to 1270 nM. Moreover, the IC50 in assay [2] was 48 nM.

`CC(C)(C)N1CCC(n2cc([C@@H](Nc3cc(Cl)c4ncc(C#N)c(Nc5ccccc5F)c4c3)c3ccc(Cl)cc3)nn2)CC1` [Example 768, (S)-6-(((1-(1-(tert-butyl)piperidin-4-yl)-1H-1,2,3-triazol-4-yl)(4-chlorophenyl)methyl)amino)-8-chloro-4-((2-fluorophenyl)amino)quinoline-3-carbonitrile]: the concentration giving a half-maximal response (EC50) in assay [1] was 2500 nM. The half-inhibitory concentration (IC50) in assay [2] was determined as 83 nM.
